Source: PubChem BioAssay (NCI)
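Results reflect a 48-hour exposure of cells in 96-well plates to compound at five concentrations. TGI is the concentration that stops growth completely.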

How the values were obtained:
Test in all cases: NCI anticancer screen, dose series, 48 h
[1] = tested on: UACC-257 melanoma
[2] = tested on: HCT-15 colon
[3] = tested on: HCT-116 colon
[4] = tested on: SN12C renal
[5] = tested on: HOP-62 NSCLC
[6] = tested on: MALME-3M melanoma
[7] = tested on: DMS 114 small cell lung
[8] = tested on: CCRF-CEM leukemia
[9] = tested on: LOX IMVI melanoma
[10] = tested on: DLD-1 colon
[11] = tested on: U251 CNS
[12] = tested on: OVCAR-4 ovarian
[13] = tested on: K-562 leukemia
[14] = tested on: NCI-H226 lung
[15] = tested on: ACHN renal
[16] = tested on: SF-295 CNS
[17] = tested on: LXFL 529 NSCLC
[18] = tested on: SK-MEL-28 melanoma
[19] = tested on: RPMI-8226 leukemia
[20] = tested on: UACC-62 melanoma
[21] = tested on: IGROV1 ovarian
[22] = tested on: SK-OV-3 ovarian
[23] = tested on: NCI-H522 lung
[24] = tested on: M14 melanoma
[25] = tested on: OVCAR-5 ovarian
[26] = tested on: TK-10 renal
[27] = tested on: HOP-92 NSCLC
[28] = tested on: CAKI-1 renal
[29] = tested on: NCI-H23 lung
[30] = tested on: MOLT-4 leukemia
[31] = tested on: KM20L2 colon
[32] = tested on: SNB-75 CNS
[33] = tested on: SF-539 CNS
[34] = tested on: SNB-78 CNS
[35] = tested on: OVCAR-8 ovarian
[36] = tested on: A549 NSCLC
[37] = tested on: SW-620 colon
[38] = tested on: EKVX NSCLC
[39] = tested on: SNB-19 CNS
[40] = tested on: RXF-631 renal
[41] = tested on: A498 renal
[42] = tested on: HT29 colon
[43] = tested on: OVCAR-3 ovarian
[44] = tested on: M19-MEL melanoma
[45] = tested on: UO-31 renal
[46] = tested on: SF-268 CNS
[47] = tested on: RXF 393 renal
[48] = tested on: NCI-H460 lung
[49] = tested on: HL-60(TB) leukemia
[50] = tested on: HCC-2998 colon
[51] = tested on: DMS 273 small cell lung
[52] = tested on: KM12 colon
[53] = tested on: SK-MEL-2 melanoma
[54] = tested on: 786-0 renal
[55] = tested on: COLO 205 colon
[56] = tested on: SR leukemia
[57] = tested on: XF 498 CNS
[58] = tested on: HOP-18 NSCLC
[59] = tested on: SK-MEL-5 melanoma

Measured: TGI

O=C1OC(O)C(Oc2ccc(Cl)cc2)=C1Cl (stereo not given)
not listed: [56] | [57] | [58] | [59]
> 100 µM: all other assays above

CC1=C(C(=O)NCc2ccccc2)C(c2ccccc2[N+](=O)[O-])C(C(=O)NCc2ccccc2)=C(C)N1
27.5 µM: [39]
33.8 µM: [55]
20.3 µM: [10]
43.3 µM: [35]
29.2 µM: [40]
23.9 µM: [24] | [44]
25.4 µM: [16] | [29] | [51] | [54]
22.8 µM: [11]
42.6 µM: [34]
29.8 µM: [7]
27.4 µM: [4] | [15]
21.3 µM: [9]
32.4 µM: [41]
30.1 µM: [38]
22.4 µM: [2]
23.4 µM: [47]
23.1 µM: [17] | [52]
25.8 µM: [33]
30.3 µM: [31]
19.7 µM: [3]
68.1 µM: [36]
50.5 µM: [30]
30.4 µM: [14]
29.4 µM: [1]
31.2 µM: [50]
35.8 µM: [56]
31.4 µM: [26] | [48]
19.2 µM: [43]
31.9 µM: [57]
24.8 µM: [13]
22.9 µM: [12] | [20] | [46]
28 µM: [42]
26.6 µM: [32]
36.6 µM: [25] | [27]
35.1 µM: [5] | [58]
26 µM: [18]
28.1 µM: [37]
13.2 µM: [49]
40.9 µM: [21]
27 µM: [6] | [45]
50 µM: [28]
44.7 µM: [8]
25.9 µM: [59]

Nc1ccn(C2CC(CO)C(O)C2O)c(=O)n1 (stereo not given)
not listed: [8] | [9] | [16] | [25] | [27] | [29] | [42] | [57]
> 57.7 µM: all other assays above

Cc1ccc(Cl)c(NC(=O)C(=O)C(C(=O)c2ccncc2)C2OC(=O)c3ccccc32)c1 (stereo not given)
not listed: [25] | [30] | [31] | [39] | [43] | [51] | [52] | [53]
> 100 µM: all other assays above

C1=Cc2nc1c(-c1ccncc1)c1ccc([n-]1)c(-c1ccncc1)c1nc(c(-c3ccncc3)c3ccc([n-]3)c2-c2ccncc2)C=C1.[Zn+2]
not listed: [41] | [47] | [51] | [56] | [58]
> 100 µM: all other assays above

c1ccc(CN(Cn2cccn2)Cn2cccn2)nc1
78.8 µM: [19]
not listed: [6] | [14] | [21] | [25] | [33] | [42] | [50] | [58]
> 100 µM: all other assays above

CC1C=CC(=O)C(n2cc(F)c(=O)[nH]c2=O)O1 (stereo not given)
48 µM: [40]
31.7 µM: [20]
35.9 µM: [55]
83.8 µM: [34]
46.8 µM: [18]
24.2 µM: [28]
36.3 µM: [44]
70.8 µM: [36]
36.8 µM: [15]
34.3 µM: [12]
79.8 µM: [13]
45.3 µM: [10]
31.5 µM: [7]
34.4 µM: [8] | [26]
31.3 µM: [54]
61 µM: [22]
36.7 µM: [24] | [37]
47.9 µM: [49]
37.5 µM: [31]
32.5 µM: [42]
29.5 µM: [11]
38.4 µM: [4]
45.7 µM: [5]
45.2 µM: [21]
47.4 µM: [51]
48.7 µM: [30]
28.7 µM: [57]
33.6 µM: [9]
54.2 µM: [48]
30 µM: [1] | [45]
50.9 µM: [38]
35.5 µM: [6] | [27]
22.6 µM: [58]
31.2 µM: [33] | [43]
29.1 µM: [3]
40.7 µM: [29]
37.8 µM: [47]
53.6 µM: [39]
42.4 µM: [2]
38.2 µM: [32]
35.8 µM: [59]
65.4 µM: [35]
38.7 µM: [19]
